# A melting point compilation (Tetko et al.)
row,SMILES,melting point
1,NCc1cccc(NC(=O)C2CCC2)c1,61 to 63 °C
2,O=C1CCC(O)(c2ccccc2)CC1,126 to 128 °C
3,Cc1cc(Br)ncc1N,54 to 56 °C
4,Cc1ccc(N2C(=O)C=CC2=O)cc1,151 to 153 °C
5,Cn1cc(C(=O)c2cccc(F)c2)cn1,103 to 105 °C
6,O=C(O)c1nn(-c2ccccc2)cc1CCCO,119 to 121 °C
7,CC(C)CC(C)(N)C(N)=O (stereo not drawn),71 to 73 °C
8,O=S(=O)(Nc1nc2ccccc2nc1Cl)c1cccc(Cl)c1,158 to 160 °C
9,Cc1nn(Cc2c(Cl)cccc2Cl)c(Cl)c1C(=O)O,187 to 189 °C
10,COc1ccc(-c2nc(CN)cs2)cc1,67 to 69 °C
11,O=C(O)C1CNCc2ccccc21 (stereo not drawn),233 to 235 °C
12,Cn1nnnc1Sc1ccc(Cl)cc1N,128 to 130 °C
13,NC(=O)c1cn[nH]c1N,184 to 186 °C
14,CC(C)C(C(=O)O)N1CCN(C)CC1 (stereo not drawn),195 to 197 °C
15,CC(=O)N(c1ccc(Cl)cc1)c1nc(C=O)cs1,210 to 212 °C
16,N#CCC(=O)c1c(Cl)cccc1Cl,63 to 65 °C
17,O=C(O)CCn1c(=O)oc2cc(S(=O)(=O)N3CCCC3)ccc21,190 to 192 °C
18,NC(=O)NCc1ccc(C(=O)O)cc1,291 to 293 °C
19,N#Cc1c(NC(=O)CCl)oc(-c2ccccc2)c1-c1ccccc1,155 to 157 °C
20,COC(=O)C(=O)NN,115 to 117 °C

row,SMILES,melting point
1,Fc1cccc(CCNC2=NCCS2)c1,74 to 76 °C
2,NC(=O)c1ccc(S(N)(=O)=O)c(N)c1,202 to 204 °C
3,Cn1ncc(-c2nc(C3CC3)no2)c1N,159 to 161 °C
4,Cc1ccc(C(=O)O)c(O)c1C,197 to 199 °C
5,Cc1cccn2c(C=O)cnc12,83 to 85 °C
6,OCCN1CCN(c2ccc(CO)nn2)CC1,129 to 131 °C
7,Cc1ccc2nc(C)c(C(=O)O)cc2c1,174 to 176 °C
8,O=C(O)CCc1ccc(S(=O)(=O)N2CCCC2)cc1,137 to 139 °C
9,Sc1nnnn1CCc1ccccn1,193 to 195 °C
10,O=C1OC(O)C(Br)=C1Br (stereo not drawn),122 to 124 °C
11,O=Cc1cn(-c2ccccc2)nc1-c1cc2ccccc2oc1=O,223 to 225 °C
12,Nc1ccc(Cl)cc1-c1nc2ccccc2[nH]1,236 to 238 °C
13,O=[N+]([O-])c1ccc(S)nc1,169 to 171 °C
14,O=C(O)CN1C(=O)COc2ccc([N+](=O)[O-])cc21,200 to 202 °C
15,CC(C)Nc1ccc(C#N)cn1,99 to 101 °C
16,O=S(=O)(NC1CCNCC1)c1ccccc1,157 to 159 °C
17,O=C(O)c1cc(N2CCOCC2)ccn1,257 to 259 °C
18,Nc1ccc(-c2nnc(O)o2)cc1,166 to 168 °C
19,Cc1nc2ccc(C#N)cc2s1,129 to 131 °C
20,COCCn1nnnc1N,114 to 116 °C

row,SMILES,melting point
1,CCOC(=O)c1cnn(CCC#N)c1N,109 to 111 °C
2,COc1ccc2[nH]c3c(c2c1)CCCC3,59 to 61 °C
3,O=C(O)CCC1CCNCC1,275 to 277 °C
4,ClCc1nc2cccnc2s1,65 to 67 °C
5,O=C(O)c1cnc2sccn2c1=O,269 to 271 °C
6,Cc1cccn2c(=O)c(C(=O)O)cnc12,205 to 207 °C
7,COc1cc(NC(=O)c2ccco2)c(C(=O)O)cc1OC,88 to 90 °C
8,O=C(O)c1ccc(S(=O)(=O)CCO)cc1,189 to 191 °C
9,CCC(=O)c1ccc(Cl)s1,47 to 49 °C
10,CC(C)CCNS(=O)(=O)c1ccc(Cl)nc1,91 to 93 °C
11,O=C(O)CNC(=O)CC1CCCC1,98 to 100 °C
12,CC(=O)Nc1cccc(NC(=O)C2CCNCC2)c1,199 to 201 °C
13,CNC(=O)NC(=O)CCl,155 to 157 °C
14,CC(C)(C)OC(=O)N[C@H]1C[C@H](N)C1,60 to 62 °C
15,COC(=O)C(CO)NC(=O)C1CCCCC1 (stereo not drawn),109 to 111 °C
16,CC(C)(C)C(=O)Nc1cn[nH]c1,200 to 202 °C
17,Nc1ccc(F)cc1-c1nc(CCOc2ccccc2)no1,122 to 124 °C
18,CNC(=O)C1(C(=O)O)CCC1,144 to 146 °C
